According to patent publication US20060189631A1, “Substituted imidazopyrimidines for the prevention and treatment of cancer” (LABORATORIOS S.A.L.V.A.T., S.A., priority 2003, published 2006):

Experiments:
[1] = test system: human colon adenocarcinoma cell lines (HCT-116); experiment: Determination of cell proliferation inhibition (Sulforodamine B); type: cell-based; details: HCT-116, 48 hours treatment
Protocol: The inhibitory capacity of cell proliferation of the compounds was determined in two human colon adenocarcinoma cell lines (HCT-116) obtained at the ATCC (American Type Collection). The cells were seeded in 96-well plates and kept at 37° C. in a CO2 heater for 24 hours to allow cell-substrate-adhesion. Subsequently, cells were treated with the products under study at concentrations comprised between 1 and 100 μM for 48 hours. After the treatment period, the medium was removed and cells were dyed with Sulforodamine B. Finally, decolouration of the dyed cells was carried out with Tris base 10 mM and the plates were read at 493-530 nm in a plate reader. IC50 was calculated as the product concentration inducing a growth inhibition of the 50% compared with control cells not treated.

[2] = test system: human colon cancer cell lines HCT-116; experiment: Determination of apoptosis (DNA fragmentation into nucleosomes, Cell Death Detection ELISA PLUS); type: cell-based; details: HCT-116, at 10 μM
Protocol: To stablish whether the antiproliferative activity of the compounds of the present invention is due to an apoptotic process, and not merely to a necrotic process, the generation of DNA fragments associated to histones (mono- and oligonucleosomes) was determined after incubation of the human colon cancer cell lines HCT-116 with the compounds of the present invention at different concentrations. DNA fragmentation into nucleosomes, which is an indicator of apoptosis phenomena, was quantified by a sandwich immunoassay using monoclonal antibodies directed against DNA and histones (Cell Death Detection ELISA^PLUS, Roche Diagnostics, cat #1920685). The quantity of fragmented DNA was expressed with the Enrichment Factor (EF) parameter, which is a coefficient of absorbance of nucleosomes liberated in the cytosol of the cells cultured in the presence of the products compared with control cells.

[3] = biological target: T1, COX-2 (Homo sapiens, UniProt P35354); experiment: COX-2 inhibition; type: biochemical
T1 sequence (P35354 18-604): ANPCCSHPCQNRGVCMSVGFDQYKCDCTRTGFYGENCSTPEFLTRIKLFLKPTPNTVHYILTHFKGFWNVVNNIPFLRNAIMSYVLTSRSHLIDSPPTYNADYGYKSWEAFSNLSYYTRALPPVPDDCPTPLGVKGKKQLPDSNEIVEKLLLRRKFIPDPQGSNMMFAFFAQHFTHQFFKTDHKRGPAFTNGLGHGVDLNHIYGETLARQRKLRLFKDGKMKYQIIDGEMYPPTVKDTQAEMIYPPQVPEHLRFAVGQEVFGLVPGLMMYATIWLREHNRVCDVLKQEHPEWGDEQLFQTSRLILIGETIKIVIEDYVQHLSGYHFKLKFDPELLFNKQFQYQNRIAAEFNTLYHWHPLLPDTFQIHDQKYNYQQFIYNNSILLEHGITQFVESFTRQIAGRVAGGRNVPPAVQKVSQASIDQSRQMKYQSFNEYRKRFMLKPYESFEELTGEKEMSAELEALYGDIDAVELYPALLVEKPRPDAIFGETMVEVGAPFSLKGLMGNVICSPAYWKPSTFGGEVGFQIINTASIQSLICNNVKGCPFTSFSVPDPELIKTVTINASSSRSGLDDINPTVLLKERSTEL

Structure (SMILES)	IC50 [1] [µM]	EF (Apoptosis induction, Enrichment Factor) [2]	IC50 [3] [µM]
CSc1ccc(-c2c(-c3ccc(Cl)cc3)nc3ncccn23)cc1Br [Example 136, 3-(3-Bromo-4-methylsulfanylphenyl)-2-(4-chlorophenyl)imidazo[1,2-a]pyrimidine]	< 5	+++ (EF > 6)	> 25
COc1ccc(-c2nc3ncccn3c2-c2ccc([S+](C)[O-])c(Cl)c2)cc1 (stereo not drawn) [Example 189, 3-(3-Chloro-4-methanesulfinylphenyl)-2-(4-methoxyphenyl)imidazo[1,2-a]pyrimidine]	5 to 25	+++ (EF > 6)	> 25
COc1ccc(-c2nc3ncccn3c2-c2ccc(SC(C)C)cc2)cc1 [Example 151, 3-(4-Isopropylsulfanylphenyl)-2-(4-methoxyphenyl)imidazo[1,2-a]pyrimidine]	< 5	+++ (EF > 6)	> 25
COc1ccc(-c2nc3ncccn3c2-c2ccc(SC)cc2)cc1 [Example 8, 2-(4-Methoxyphenyl)-3-(4-methylsulfanylphenyl)imidazo[1,2-a]pyrimidine]	< 5	+++ (EF > 6)	5 to 25
Cc1ccc(-c2nc3ncccn3c2-c2ccc(SC(C)C)c(Cl)c2)cc1 [Example 153, 3-(3-Chloro-4-isopropylsulfanylphenyl)-2-p-tolylimidazo[1,2-a]pyrimidine]	< 5	+++ (EF > 6)	> 25
CSc1ccc(-c2c(-c3ccc(Br)cc3)nc3ncccn23)cc1 [Example 13, 2-(4-Bromophenyl)-3-(4-methylsulfanylphenyl)imidazo[1,2-a]pyrimidine]	< 5	+++ (EF > 6)	> 25
CC1=C(CC(=O)O)c2cc(F)ccc2/C1=C\c1ccc(S(C)(=O)=O)cc1 [Exisulind, reference compound]	> 25	+ (EF < 3)	> 25
COc1ccc(-c2nc3ncccn3c2-c2ccc(SC)c(C)c2)cc1 [Example 138, 2-(4-Methoxyphenyl)-3-(3-methyl-4-methylsulfanylphenyl)imidazo[1,2-a]pyrimidine]	< 5	+++ (EF > 6)	> 25
Cc1ccc(-c2cc(C(F)(F)F)nn2-c2ccc(S(N)(=O)=O)cc2)cc1 [Celecoxib, reference compound]	> 25	+ (EF < 3)	
COc1ccc(-c2nc3ncccn3c2-c2ccc(SC)c(Cl)c2)cc1 [Example 124, 3-(3-Chloro-4-methylsulfanylphenyl)-2-(4-methoxyphenyl)imidazo[1,2-a]pyrimidine]	< 5	+++ (EF > 6)	> 25
CSc1ccc(-c2c(-c3ccc(F)cc3)nc3ncccn23)cc1Cl [Example 240, 3-(3-Chloro-4-methylsulfanylphenyl)-2-(4-fluorophenyl)imidazo[1,2-a]pyrimidine]	5 to 25	++ (3 < EF < 6)	> 25
CCCSc1ccc(-c2c(-c3ccc(OC)cc3)nc3ncccn23)cc1Cl [Example 148, 3-(3-Chloro-4-propylsulfanylphenyl)-2-(4-methoxyphenyl)imidazo[1,2-a]pyrimidine]	< 5	+++ (EF > 6)	> 25
COc1ccc(-c2nc3nc(C)ccn3c2-c2ccc(SC)c(Cl)c2)cc1 [Example 125, 3-(3-Chloro-4-methylsulfanylphenyl)-2-(4-methoxyphenyl)-7-methylimidazo[1,2-a]pyrimidine]	5 to 25	+++ (EF > 6)	
CSc1ccc(-c2nc3ncccn3c2-c2ccc(SC(C)C)c(Cl)c2)cc1 [Example 157, 3-(3-Chloro-4-isopropylsulfanylphenyl)-2-(4-methylsulfanylphenyl)imidazo[1,2-a]pyrimidine]	< 5	+++ (EF > 6)	> 25
CSc1ccc(-c2nc3ncccn3c2-c2ccc(SC)c(Cl)c2)cc1 [Example 86, 3-(3-Chloro-4-methylsulfanylphenyl)-2-(4-methylsulfanylphenyl)imidazo[1,2-a]pyrimidine]	< 5	+++ (EF > 6)	
CSc1ccc(-c2c(-c3cccc(C)c3)nc3ncccn23)cc1Br [Example 132, 3-(3-Bromo-4-methylsulfanylphenyl)-2-m-tolylimidazo[1,2-a]pyrimidine]	< 5	+++ (EF > 6)	> 25
COc1ccc(-c2nc3ncccn3c2-c2ccc3c(c2)C(C)(C)CCS3)cc1 [Example 244, 3-(4,4-Dimethylthiochroman-6-yl)-2-(4-methoxyphenyl)imidazo[1,2-a]pyrimidine]	< 5	+++ (EF > 6)	> 25
CSc1ccc(-c2c(-c3ccc(Cl)cc3)nc3ncccn23)cc1Cl [Example 238, 3-(3-Chloro-4-methylsulfanylphenyl)-2-(4-chlorophenyl)imidazo[1,2-a]pyrimidine]	< 5	+++ (EF > 6)	> 25
